Assay results from patent publication US12564638B2 (SHANGHAITECH UNIVERSITY, priority 2019, dated 2026).
Where two headings read alike, the source gives them in different places.

Key:
Format in all cases: cell-based
[1] = tested on: HCC827 cells (EGFR Exon19 del, non-small cell lung cancer cells); assay: Cell viability assay (WST/CCK8), HCC827 cells; details: Homo sapiens, HCC827, 72 h, HCC827 (Exon19 Del), 72 hours, read-out: IC50 (half inhibitory concentration)
In short: (§1)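 Plated 3 000 cells/well in complete RPMI1640 the day before dosing; controls were DMSO (negative) and EGFR TKIs (positive).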

[2] = tested on: PC9 DCT (Del19+T790M+C797S) cells; assay: Cell viability assay, PC9 cells with EGFR triple mutation; details: Homo sapiens, PC-9; Table 9; PC9 (Del + T790M + C797S), EGFR triple mutations; read-out: IC50 (half inhibitory concentration)
Description: Construction of EGFR triple mutant cell line PC9 DCT (Dell9+T790M+C797S): The cDNA expressing human EGFR was cloned into pLVX vector, and exon 19 deletion mutation (746-750) and T790M mutation were introduced by point mutation and C797S mutation. Transferred into PC9 cells by lentiviral packaging. Cells stably expressing EGFR triple mutations were obtained by fluorescence screening.
The cDNA sequence expressing human EGFR was cloned into a pLVX vector (GFP^+), and then introduce the EGFR exon 19 deletion (746-750), exon 20 T790M and C797S mutations by were generated by site-directed mutagenesis. The PC9 cells were infected with lentivirus containing the indicated EGFR mutations, and the cells stably expressing EGFR triple mutation were obtained by fluorescence screening.
(§2) All of the half inhibitory concentrations (IC50) of these compounds of the present invention were determined with WST reagent from Fuyuan Biotec Company. The specific experiment procedures are as follows: Cancer cells were planted in 96-well-plate at the density of 3 000 cells per well with 100 μL RPMI1640 completed culture medium. In the next day, compounds with indicated concentrations were added to the cells, DMSO was used as the negative control and the EGFR TKIs were used to treat cells as the positive groups. After 72 hours drug treatment, cell viability was measured by using the WST reagent following the instructions. The growth inhibition curve of the compounds on cells were plotted by Prism GraphPad, and the compounds IC50 calculated from it.
The cell viability assays were taken to determine the anti-tumor activity of these indicated compounds in PC9 cells, which overexpressed Exon 19del+T790M+C797S triple mutant EGFR.

[3] = tested on: PC9 cells (EGFR Exon 19 del, non-small cell lung cancer cells); assay: Cell viability assay (WST/CCK8), PC9 cells; details: Homo sapiens, PC-9; Table 6, canertinib-based compounds; PC9 (Exon19 Del); 72 hours; WST; read-out: IC50 (half inhibitory concentration)
In short: as §1

[4] = tested on: H1975 (EGFR T790M+L858R mutation, non-small cell lung cancer cell line); assay: Cell viability assay (WST/CCK8), H1975 cells; details: Homo sapiens, NCI-H1975; Table 7, canertinib-based compounds; H1975 (L858R + T790M); read-out: IC50 (half inhibitory concentration)
In short: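 Cells seeded at 3 000 per well in RPMI1640 complete medium, dosed next day with compounds at indicated concentrations (DMSO negative control, EGFR TKIs as positive control).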

[5] = tested on: PC9BracA1 (EGFR Exon 19 del+T790M, non-small cell lung cancer cells); assay: Cell viability assay (WST/CCK8), PC9Brac1 cells; details: Table 7, canertinib-based compounds; PC9Brca1 (Ex19del + T790M); read-out: IC50 (half inhibitory concentration)
Description: The cell lines with abnormal EGFR expression used are as follows: • HCC827 cells (EGFR Exon19 del, non-small cell lung cancer cells); • PC9 cells (EGFR Exon 19 del, non-small cell lung cancer cells); • PC9BracA1 (EGFR Exon 19 del+T790M, non-small cell lung cancer cells) • H1975 (EGFR Exon T790M+L858R mutation, non-small cell lung cancer cell line) • BT474 cells (HER2 positive breast cancer cells)
as §2, with “instructions.” for “instructions. The growth inhibition curve of the compounds on cells were plotted by Prism GraphPad, and the compounds IC50 calculated from it.”

[6] = tested on: BT474 cells (HER2 positive breast cancer cells); assay: Cell viability assay (CCK8), BT474 cells; details: Homo sapiens, BT-474, Table 10, BT474, 72 hours, read-out: IC50 (half inhibitory concentration)
In short: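 HER2-overexpressing BT474 cells in RPMI1640 were exposed to compounds for 72 hours over 10 concentrations (3-fold dilution, top 10 μM). Viability was measured with CCK8 reagent against a DMSO control, and IC50 was taken from growth inhibition curves.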

[7] = Table 3, poziotinib-based compounds, WST (CCK8)
[8] = Table 6, canertinib-based compounds, WST

| SMILES | IC50 [1, 7] [µM] | IC50 [2] [µM] | IC50 [1, 8] [µM] | IC50 [3] [µM] | IC50 [4] [µM] | IC50 [5] [µM] | IC50 [6] [µM] |
| --- | --- | --- | --- | --- | --- | --- | --- |
| COc1cc2ncnc(Nc3ccc(Cl)c(Cl)c3F)c2cc1OC1CCN(C(=O)CSc2cccc3c2CN(C2CCC(=O)NC2=O)C3=O)CC1 (stereo not drawn) [SIAIS219164, 3-(4-((2-(4-((4-((3,4-dichloro-2-fluorophenyl)amino)-7-methoxyquinazolin-6-yl)oxy)piperidin-1-yl)-2-oxoethyl)thio)-1-oxoisoindolin-2-yl)piperidine-2,6-dione] | 0.033 | 0.0048 |  |  |  |  |  |
| COc1cc2ncnc(Nc3ccc(Cl)c(Cl)c3F)c2cc1OC1CCN(C(=O)CCCSc2cccc3c2CN(C2CCC(=O)NC2=O)C3=O)CC1 (stereo not drawn) [SIAIS219166, 3-(4-((4-(4-((4-((3,4-dichloro-2-fluorophenyl)amino)-7-methoxyquinazolin-6-yl)oxy)piperidin-1-yl)-4-oxobutyl)thio)-1-oxoisoindolin-2-yl)piperidine-2,6-dione] | 0.03 | 0.0046 |  |  |  |  |  |
| C=CC(=O)Nc1cc2c(Nc3ccc(F)c(Cl)c3)ncnc2cc1OCCCN1CCN(C(=O)CCCCSc2cccc3c2CN(C2CCC(=O)NC2=O)C3=O)CC1 (stereo not drawn) [SIAIS262122, N-(4-((3-chloro-4-fluorophenyl)amino)-7-(3-(4-(5-((2-(2,6-dioxopiperidin-3-yl)-1-oxoisoindolin-4-yl)thio)pentanoyl)piperazin-1-yl)propoxy)quinazolin-6-yl)acrylamide] |  |  | 0.0041 | 0.0231 | 0.097 | 0.474 | 0.048 |
| C=CC(=O)Nc1cc2c(Nc3ccc(F)c(Cl)c3)ncnc2cc1OCCCN1CCN(C(=O)CCCCCSc2cccc3c2CN(C2CCC(=O)NC2=O)C3=O)CC1 (stereo not drawn) [SIAIS262123, N-(4-((3-chloro-4-fluorophenyl)amino)-7-(3-(4-(6-((2-(2,6-dioxopiperidin-3-yl)-1-oxoisoindolin-4-yl)thio)hexanoyl)piperazin-1-yl)propoxy)quinazolin-6-yl)acrylamide] |  |  | 0.002 | 0.0083 | 0.143 | 0.38 | 0.0489 |
| C=CC(=O)Nc1cc2c(Nc3ccc(F)c(Cl)c3)ncnc2cc1OCCCN1CCN(CCCCC#CC2c3ccccc3C(=O)N2C2CCC(=O)NC2=O)CC1 (stereo not drawn) [SIAIS262131, N-(4-((3-chloro-4-fluorophenyl)amino)-7-(3-(4-(6-(2-(2,6-dioxopiperidin-3-yl)-3-oxoisoindolin-1-yl)hex-5-yn-1-yl)piperazin-1-yl)propoxy)quinazolin-6-yl)acrylamide] |  |  | 0.0012 | 0.0293 | 0.045 | 0.216 | 0.0051 |

The remaining lines, values ahead:

| IC50 [1, 7] [µM] | IC50 [2] [µM] | IC50 [1, 8] [µM] | IC50 [3] [µM] | IC50 [4] [µM] | IC50 [5] [µM] | IC50 [6] [µM] | SMILES |
| --- | --- | --- | --- | --- | --- | --- | --- |
|  |  | 0.0103 | 0.0026 | 0.413 | 0.419 | 0.0164 | C=CC(=O)Nc1cc2c(Nc3ccc(F)c(Cl)c3)ncnc2cc1OCCCN1CCN(C(=O)CNc2cccc3c2C(=O)N(C2CCC(=O)NC2=O)C3=O)CC1 (stereo not drawn) [SIAIS262124, N-(4-((3-chloro-4-fluorophenyl)amino)-7-(3-(4-(2-((2-(2,6-dioxopiperidin-3-yl)-1,3-dioxoisoindolin-4-yl)amino)acetyl)piperazin-1-yl)propoxy)quinazolin-6-yl)acrylamide] |
|  |  | 0.0025 | 0.0023 | 0.02 | 0.085 | 0.0176 | C=CC(=O)Nc1cc2c(Nc3ccc(F)c(Cl)c3)ncnc2cc1OCCCN1CCN(C(=O)CCCCCCNc2cccc3c2C(=O)N(C2CCC(=O)NC2=O)C3=O)CC1 (stereo not drawn) [SIAIS262126, N-(4-((3-chloro-4-fluorophenyl)amino)-7-(3-(4-(7-((2-(2,6-dioxopiperidin-3-yl)-1,3-dioxoisoindolin-4-yl)amino)heptanoyl)piperazin-1-yl)propoxy)quinazolin-6-yl)acrylamide] |
|  |  | 0.011 | 0.0167 | 0.287 | 0.267 | 0.0282 | C=CC(=O)Nc1cc2c(Nc3ccc(F)c(Cl)c3)ncnc2cc1OCCCN1CCC(N2CCN(C(=O)CSc3cccc4c3CN(C3CCC(=O)NC3=O)C4=O)CC2)CC1 (stereo not drawn) [SIAIS262174, N-(4-((3-chloro-4-fluorophenyl)amino)-7-(3-(4-(4-(2-((2-(2,6-dioxopiperidin-3-yl)-1-oxoisoindolin-4-yl)thio)acetyl)piperazin-1-yl)piperidin-1-yl)propoxy)quinazolin-6-yl)acrylamide] |
|  |  | 0.0033 | 0.0158 | 0.067 | 0.472 | 0.0014 | C=CC(=O)Nc1cc2c(Nc3ccc(F)c(Cl)c3)ncnc2cc1OCCCN1CCC(N2CCN(C(=O)CCCCCSc3cccc4c3CN(C3CCC(=O)NC3=O)C4=O)CC2)CC1 (stereo not drawn) [SIAIS262176, N-(4-((3-chloro-4-fluorophenyl)amino)-7-(3-(4-(4-(6-((2-(2,6-dioxopiperidin-3-yl)-1-oxoisoindolin-4-yl)thio)hexanoyl)piperazin-1-yl)piperidin-1-yl)propoxy)quinazolin-6-yl)acrylamide] |
|  |  | 0.0057 | 0.0034 | 0.654 | 0.209 | 0.0082 | C=CC(=O)Nc1cc2c(Nc3ccc(F)c(Cl)c3)ncnc2cc1OCCCN1CCC(N2CCN(C(=O)CNc3cccc4c3C(=O)N(C3CCC(=O)NC3=O)C4=O)CC2)CC1 (stereo not drawn) [SIAIS262177, N-(4-((3-chloro-4-fluorophenyl)amino)-7-(3-(4-(4-(2-((2-(2,6-dioxopiperidin-3-yl)-1,3-dioxoisoindolin-4-yl)amino)acetyl)piperazin-1-yl)piperidin-1-yl)propoxy)quinazolin-6-yl)acrylamide] |
|  |  | 0.0052 | 0.0004 | 0.038 | 0.069 | 0.0021 | C=CC(=O)Nc1cc2c(Nc3ccc(F)c(Cl)c3)ncnc2cc1OCCCN1CCC(N2CCN(C(=O)CCCCCNc3cccc4c3C(=O)N(C3CCC(=O)NC3=O)C4=O)CC2)CC1 (stereo not drawn) [SIAIS262178, N-(4-((3-chloro-4-fluorophenyl)amino)-7-(3-(4-(4-(6-((2-(2,6-dioxopiperidin-3-yl)-1,3-dioxoisoindolin-4-yl)amino)hexanoyl)piperazin-1-yl)piperidin-1-yl)propoxy)quinazolin-6-yl)acrylamide] |
|  |  | 0.0025 | 0.0103 | 0.043 | 0.181 | 0.0146 | C=CC(=O)Nc1cc2c(Nc3ccc(F)c(Cl)c3)ncnc2cc1OCCCN1CCC(N2CCN(C(=O)CCCCCCNc3cccc4c3C(=O)N(C3CCC(=O)NC3=O)C4=O)CC2)CC1 (stereo not drawn) [SIAIS262179, N-(4-((3-chloro-4-fluorophenyl)amino)-7-(3-(4-(4-(7-((2-(2,6-dioxopiperidin-3-yl)-1,3-dioxoisoindolin-4-yl)amino)heptanoyl)piperazin-1-yl)piperidin-1-yl)propoxy)quinazolin-6-yl)acrylamide] |
